Values of other authors as cited in patent publication US20230009337A1, “Liberty Vitamins and Drinks” (priority 2021, published 2023).

Columns and labels:
TWIK2 potassium channels = target: T1, TWIK2 potassium channels (Homo sapiens, UniProt Q9Y257); conditions: macrophage white blood cell; discovered by Dr. Jalees Rehman and Professor Asrar Malik, University of Illinois in Chicago
T1 construct: host or cells: macrophage white blood cell (as described in the diagram)
T1 sequence (Q9Y257 1-313): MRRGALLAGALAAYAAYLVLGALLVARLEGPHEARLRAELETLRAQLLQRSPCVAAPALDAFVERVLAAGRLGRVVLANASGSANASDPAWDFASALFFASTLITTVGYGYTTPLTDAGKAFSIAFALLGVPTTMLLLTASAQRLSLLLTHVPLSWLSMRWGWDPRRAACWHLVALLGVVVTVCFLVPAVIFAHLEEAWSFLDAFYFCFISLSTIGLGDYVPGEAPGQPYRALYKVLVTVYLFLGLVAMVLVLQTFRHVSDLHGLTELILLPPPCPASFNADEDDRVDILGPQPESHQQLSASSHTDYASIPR

mice = conditions: acetone/olive oil placed on the mice for 4 weeks

inhibition of TWIK2 channels (TWIK2 potassium channels): can inhibit
Structure (SMILES): C=C[C@H]1C[N@@]2CC[C@H]1C[C@H]2[C@H](O)c1ccnc2ccc(OC)cc12 [Quinine]
loss of skin and flesh (skin inflammation) (mice): did not have a loss of skin and flesh
